# Measured values: the METLIN SMRT retention time set (Domingo-Almenara et al. 2019)
# Assay: gradient 5% acetonitrile 3 min, to 50% in 2 min, to 85% in 15 min, held 3 min, 100 µL/min
# Details: column: Zorbax Extend-C18 2.1 x 50 mm; eluents: water / acetonitrile, 0.1% formic acid
# Procedure, shortened: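 Data were gathered over 3 months by HPLC coupled to a quadrupole time-of-flight mass spectrometer, operated in positive and negative ionization mode. Mixtures of ~100 pure standards ran on a Zorbax Extend-C18 column (2.1 × 50 mm, 1.8 μm) at 100 μL/min, with water and acetonitrile each containing 0.1% formic acid and dead and dwell volumes of 40 μL and 900 μL. Retention time was read from adduct peaks picked by computer and checked manually.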
row,SMILES,RP-LC retention time
1,Cc1ccn2cc(-c3ccc(NS(=O)(=O)c4ccc5cccc6c5c4CC6)cc3)nc2n1,748 s
2,O=C(NCCCS(=O)(=O)N1CCN(c2ncccn2)CC1)c1ccncc1,568 s
3,Cc1ccc(S(=O)(=O)Nc2ccc(-c3cn4ccccc4n3)cc2)cc1[N+](=O)[O-],662 s
4,O=C(CN1C(=O)CCCc2cc(S(=O)(=O)N3CCCC3)ccc21)N1CCc2ccccc2C1,838 s
5,CC(=O)N1CCc2cc(-c3ccc(C(=O)NCCN4CCCCC4C)cc3)ccc21 (configuration not stated),622 s
6,Cc1ccc(Cl)cc1N(C)S(=O)(=O)c1cc2n(c1)CCCN(C)C2=O,794 s
7,C=C1C(=O)O[C@@H]2[C@H]3O[C@]3(C)CCC=C(C)CC[C@@H]12,844 s
8,CC(=O)N1CCCC1CCc1ncc(C)n1C(C)C (configuration not stated),577 s
9,CCOc1ccc(NC(=O)C2CCCN(S(=O)(=O)c3cc(-c4noc(C)n4)cs3)C2)cc1 (configuration not stated),982 s
10,COc1ccc(S(=O)(=O)N2CCc3nc(-c4ccc(Cl)cc4)ncc3C2)cc1,1100 s
11,O=c1c2sccc2n(Cc2nc(-c3ccc(F)cc3)no2)c(=O)n1Cc1ccccc1Cl,1160 s
12,CCOC(=O)CCCSc1nc2sc3c(c2c(=O)[nH]1)CCC3,870 s
13,COc1ccc(CN2C(=O)CC(c3ccc(OC)cc3)CC2=O)cc1,965 s
14,Cc1cc(C(=O)NCCCN2CCCC2=O)c2c(C)nn(-c3ccccc3)c2n1,732 s
15,CCOc1ccc(NC(=O)c2cc(C(C)C)n(C3CCS(=O)(=O)C3)n2)cc1 (configuration not stated),877 s
16,COc1cc(NC(=O)CN2C(=O)CC(c3ccc(Cl)cc3)=Nc3cccnc32)cc(OC)c1,1000 s
17,CCS(=O)(=O)N1CCCc2cc(C(=O)N3CCOCC3)ccc21,679 s
18,COc1cc(C(=O)NCC(c2cccs2)N2CCOCC2)cc(OC)c1OC (configuration not stated),607 s
19,CCN1C(=O)C(C)(C(=O)Nc2ccc(F)c(Cl)c2)Oc2cccnc21 (configuration not stated),988 s
20,Cc1cccc(NC(=O)C2CCN(S(=O)(=O)c3cc(C(=O)N4CCCC4)cs3)CC2)c1C,818 s
21,CC(C)CCNC(=O)C1CCN(c2nc3ccc(-c4cncnc4)nc3s2)CC1,824 s
22,Cc1c(C(=O)NC2CC2)cnn1-c1cc(-c2nc(C3CC3)no2)ccn1,843 s
23,CCCN(CC1CC1)C(=O)CCC1CCCN(S(=O)(=O)c2ccc(C)cc2)C1 (configuration not stated),1120 s
24,Cc1cc2c(cc1S(=O)(=O)N1CCCC1C(=O)Nc1ccc(C(C)C)cc1)OC(C)C(=O)N2 (configuration not stated),916 s
25,CC(=O)N(CCC1(C(C)C)CCOC(C)(C)C1)Cc1ccccc1 (configuration not stated),1000 s
26,Cc1cccc(NC(=O)CN2CCc3[nH]c4c(C)cc(F)cc4c(=O)c3C2)c1,626 s
27,COC(=O)c1ccc2c(=O)n(Cc3ccc(F)cc3)c(N3CCSC3)nc2c1,1090 s
28,Cc1ccc(N2CCC(NC(=O)Nc3cccc(Cl)c3C)C2=O)cc1 (configuration not stated),909 s

row,SMILES,RP-LC retention time
1,COc1ccc(NC(=O)Cn2c(=O)cc(-c3nc(C(C)C)no3)c3ccccc32)cc1,938 s
2,CSc1cccc2sc(NC(=O)C3CCN(S(C)(=O)=O)CC3)nc12,779 s
3,O=C(NCCc1noc(C2CC2)n1)c1cccs1,700 s
4,Cn1cccc1C(=O)N1CC(c2nc(CCOCC3CCCC3)no2)C1,934 s
5,Cc1cc(C)cc(N2C=C(C(=O)N3CCOCC3)S(=O)(=O)c3ccccc32)c1,826 s
6,CC(C)c1cc(C(=O)Nc2cccc(F)c2)nc2ccnn12,1140 s
7,Cc1cccc(-n2c(=O)c3sccc3n(Cc3nc(-c4ccc(C)c(C)c4)no3)c2=O)c1,1150 s
8,Cc1cc(C)cc(NC(=O)c2c(C)oc3nc(C)nc(N4CCOCC4)c23)c1,888 s
9,O=C(CCN1C(=O)c2ccccc2C1=O)OCC(=O)c1ccc(Cl)cc1Cl,954 s
10,CCN1CCN(CCNC(=O)C2Cn3cccc3C(=O)N2CC(C)C)CC1 (configuration not stated),562 s
11,CCCNC(=O)Cn1c(=O)c2cccn2c2ccc(F)cc21,729 s
12,COc1ccc(C2(CNC(=O)CCc3c(C)noc3C)CCOCC2)cc1,660 s
13,CC(C)NC(=O)c1n[nH]c2c1CCCC2,662 s
14,Cc1nc(-c2nnc(NC(=O)Cn3cnc4c3c(=O)n(C)c(=O)n4C)o2)cs1,569 s
15,Cc1oc2ccn(Cc3ccc(F)cc3)c(=O)c2c1C(=O)NCc1cc(F)ccc1F,1130 s
16,Cc1cc(-c2ccc3c(c2)CCN3C(=O)c2cccc(NC(=O)c3ccco3)c2)on1,841 s
17,COc1ccc(C(=O)N2CCC3(CC2)NC(=O)c2ccc(F)cc2N3C)cc1,740 s
18,CCC(C)C(=O)N1CCCN(C2=NS(=O)(=O)C(c3ccc(F)cc3)=C2C)CC1 (configuration not stated),795 s
19,COc1cc(CNC(=O)C2CCCN(c3cc(=O)n(C)c(=O)n3C)C2)cc(OC)c1OC (configuration not stated),636 s
20,COc1ccc(-c2cn3ccn(-c4ccc(OC)c(Cl)c4)c(=O)c3n2)cc1,1240 s
21,Cc1cc2[nH]c(C(=O)Nc3ccc(F)c(C)c3)c(CN3CCOCC3)c2s1,720 s
22,COc1ccc(-n2c(=O)n(C)c(=O)c3cc(C(=O)NCc4ccccc4F)cnc32)cc1,849 s
23,O=C(NCc1ccc(-c2noc(-c3ccc(F)cc3F)n2)s1)C1CC1,893 s
24,C[C@H](CCC(=O)NCCS(=O)(=O)O)[C@H]1CC[C@H]2[C@@H]3CC[C@@H]4C[C@H](O)CC[C@]4(C)[C@H]3C[C@H](O)[C@]12C,724 s
25,O=C(Nc1ccc(NC(=O)c2ccncc2)cc1)c1ccncc1,610 s
26,COc1ccc(-c2csc(NC(=O)Cn3c(=O)oc4ccccc43)n2)cc1OC,828 s
27,CCOc1ccc(C(=O)NC2(c3nc(CC)no3)CCCCC2)cc1OCC,990 s

# The next lines start with the values.
row,RP-LC retention time,SMILES
1,738 s,O=C(Cn1c(=O)oc2ccccc21)N1CCN(C(=O)C2CC2c2cccs2)CC1 (configuration not stated)
2,786 s,CCCCOc1ccc(NC(=O)c2cc(=O)c3cc(CC)ccc3o2)c2cccnc12
3,649 s,O=C(Nc1cc(Cl)ccc1F)C1CCCN(c2nnc3ccccn23)C1 (configuration not stated)
4,668 s,O=C(CCNC(=O)Cn1cnc2ccccc2c1=O)NCCc1c[nH]c2ccccc12
5,772 s,O=C(O)c1cnc(NCc2ccco2)nc1-c1ccccc1
6,852 s,COc1ccccc1CNC(=O)C1CCCN(C(=O)c2cc3sccc3n2C)C1 (configuration not stated)
7,984 s,CCn1cc(-c2nc(CC(=O)Nc3ccccc3OC)cs2)c2cccnc21
8,691 s,Cc1cc2n(n1)CCC(=O)N2CCCC(=O)NCCCc1ccccc1
9,856 s,Cc1ccc(CNC(=O)C2(C)CN(S(C)(=O)=O)CC(=O)N2CCc2ccccc2)cc1 (configuration not stated)
10,736 s,O=C(Cc1c[nH]c2ncccc12)NC1CCN(Cc2ccccc2)CC1
11,785 s,CN1C(=O)c2cccnc2Sc2cc(NC(=O)c3ccccc3Br)ccc21
12,1110 s,COc1ccc(C2c3[nH]c4ccccc4c3CCN2C(=O)Cc2cccs2)cc1 (configuration not stated)
13,935 s,Cn1nc(C(=O)NC2CCCN(c3cc(-c4ccc(Cl)cc4)[nH]n3)C2)c2ccccc21 (configuration not stated)
14,800 s,O=C(NCc1ccc(Cl)cc1)C1CCCN(S(=O)(=O)c2c[nH]c(C(=O)N3CCCC3)c2)C1 (configuration not stated)
15,824 s,Cc1nc(-c2noc(-c3ccc(F)cc3)n2)cn1CC(=O)NCc1ccccc1F
16,829 s,Cc1cc(C(=O)NCC2CCN(C(=O)Oc3ccccc3)CC2)c(C)o1

row,RP-LC retention time,SMILES
1,785 s,O=C(Cc1csc2nc(-c3ccccc3)cn12)Nc1ccccc1
2,761 s,Cc1nnsc1C(=O)N1CCC(CNC(=O)c2cc(-c3ccccc3)on2)CC1
3,1230 s,O=C(Nc1ccc(F)c(Cl)c1)C1CCCN(c2ncc(-c3ccc(F)cc3)cn2)C1 (configuration not stated)
4,942 s,Cc1ccc(NC(=O)N2CCCC(C)(C(=O)NCc3ccccc3C)C2)cc1 (configuration not stated)
5,911 s,Cc1ccc(Cl)cc1NC(=O)N1CCC(n2cnc3c(C)cccc3c2=O)CC1
6,989 s,Cc1ccc(N2CC(c3noc(C4(c5ccccc5)CC4)n3)CC2=O)cc1 (configuration not stated)
7,805 s,O=C(NCCc1ccccc1)N1CCCn2nc(-c3cccs3)cc2C1
8,766 s,CCc1noc(NC(C)=O)c1-c1ccc(OC)c(S(=O)(=O)NCc2ccccc2)c1
9,831 s,Cc1ccc(CN2CCN(CC(=O)Nc3nc(-c4ccc(C)c(C)c4)cs3)CC2)cc1
10,896 s,Cc1cc(NC(=O)Nc2cccc3ccccc23)no1
11,907 s,O=C(NCCOc1cccc(C(F)(F)F)c1)c1ccccc1Cl
12,909 s,Cc1cc2nn(CC(=O)NC3CCCCC3)c(=O)n2c(Nc2ccc(F)cc2)n1
13,659 s,O=C(Cn1nc2c(N3CCCCCC3)nccn2c1=O)NCc1ccc2c(c1)OCO2
14,623 s,Cn1c(CNC(=O)C2CCC2)nc2c1CN(C(=O)Cc1ccc(Cl)cc1)CC2
15,656 s,O=C(NCCCN1CCCC1=O)c1nc2ccccn2c1-c1ccc(F)cc1
16,684 s,CCc1ccc2c(c1)-c1ccccc1S(=O)(=O)N2CC(=O)NCc1cccnc1
